Here are results for 9 molecules from patent US7973159B2, “Non-basic melanin concentrating hormone receptor-1 antagonists” (Bristol-Myers Squibb Company, priority 2007, dated 2011).

T1 sequence (Q99705 whole entry E4Q/A5T): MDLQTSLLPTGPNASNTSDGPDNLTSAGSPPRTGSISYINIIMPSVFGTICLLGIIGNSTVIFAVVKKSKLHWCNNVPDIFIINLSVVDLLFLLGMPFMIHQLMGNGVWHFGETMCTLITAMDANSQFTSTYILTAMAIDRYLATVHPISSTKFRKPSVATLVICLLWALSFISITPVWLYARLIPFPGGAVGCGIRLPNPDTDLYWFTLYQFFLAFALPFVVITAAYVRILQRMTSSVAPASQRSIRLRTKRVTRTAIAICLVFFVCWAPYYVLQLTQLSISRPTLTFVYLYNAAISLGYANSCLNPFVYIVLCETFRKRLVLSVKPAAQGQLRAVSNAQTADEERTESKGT

This assay addresses T1, mutated (E4Q, A5T) hMCHR1 receptor (Homo sapiens, UniProt Q99705, A5T/E4Q).
T1 construct: expressed in transfected cells
Description: Radioligand binding assay for assessment of MCHR1 activity. The conditions noted are these: membranes from stably transfected HEK-293 cells; competition with [Phe13,[125I]Tyr19]-MCH, 90 min. As for the experimental part:
Radioligand Binding Assay for Assessment of MCHR1 Activity
Membranes from stably transfected HEK-293 cells expressing a mutated (E4Q, A5T) hMCHR1 receptor were prepared by dounce homogenization and differential centrifugation. Binding experiments were carried out with 0.5-1.0 ug of membrane protein incubated in a total of 0.2 ml in 25 mM HEPES (pH 7.4) with 10 mM MgCl2, 2 mM EGTA, and 0.1% BSA (Binding Buffer) for 90 min. For competition binding assays, reactions were carried out in the presence of with 0.06-0.1 nM [Phe^13, [^125I]Tyr^19]-MCH and increasing concentrations of unlabeled test molecules. Reactions were terminated by rapid vacuum filtration over 96 well-GFC UNIFILTER® plates pre-coated with 0.075 ml binding buffer containing 1% BSA, and washed 3 times with 0.4 ml of Phospho-buffered Saline (pH 7.4) containing 0.01% TX-100. Filters were dried, 0.05 ml microscint 20 was added to each well and radioactivity was subsequently quantified by scintillation counting on a TOPCOUNT® microplate scintillation counter (Packard). Inhibitory constants were determined by nonlinear least squares analysis using a four parameter logistic equation.
For `COc1cc(-n2ncc3cc(-c4ccc(Cl)cc4)sc3c2=O)ccc1OCC(C)(C)O` [Example 9, 2-(4-Chlorophenyl)-6-(4-(2-hydroxy-2-methylpropoxy)-3-methoxyphenyl)-thieno[2,3-d]pyridazin-7(6H)-one], affinity was put at a Ki of 4 nM. For the molecule `COc1cc(-n2nnc3cc(-c4ccc(Cl)cc4)sc3c2=O)ccc1OC[C@H]1OC(C)(C)O[C@@H]1C` [Example 6], the affinity, expressed as Ki, was 19 nM. `COc1cc(-n2nnc3cc(-c4ccc(Cl)cc4)sc3c2=O)ccc1OCCO` [Example 4, 6-(4-Chlorophenyl)-3-(4-(2-hydroxyethoxy)-3-methoxyphenyl)thieno[3,2-d][1,2,3]triazin-4(3H)-one]: the Ki (as a rule, a dissociation constant, usually derived from enzyme kinetics or from competition with a known ligand) came out at 5 nM. The result for `COc1cc(-n2nnc3cc(-c4ccc(Cl)cc4)sc3c2=O)ccc1OCC(C)=O` [Example 2, 6-(4-Chlorophenyl)-3-(3-methoxy-4-(2-oxopropoxy)phenyl)thieno[3,2-d][1,2,3]triazin-4(3H)-one] reads 5 nM; that for `COc1cc(-n2nnc3cc(-c4ccc(Cl)cc4)sc3c2=O)ccc1OC[C@@H](O)[C@@H](C)O` [Example 7, 6-(4-Chlorophenyl)-3-(4-((2R,3R)-2,3-dihydroxybutoxy)-3-methoxyphenyl)thieno[3,2-d][1,2,3]triazin-4(3H)-one], 5 nM; that for `COc1cc(-n2nnc3cc(-c4ccc(Cl)cc4)sc3c2=O)ccc1OCC(O)C(F)(F)F` (stereo not drawn) [Example 8, 6-(4-Chlorophenyl)-3-(3-methoxy-4-(3,3,3-trifluoro-2-hydroxypropoxy)phenyl)thieno[3,2-d][1,2,3]triazin-4(3H)-one], 8 nM. The result for `COc1cc(-n2nnc3cc(-c4ccc(Cl)cc4)sc3c2=O)ccc1OCC(O)C1CC1` (stereo not drawn) [Example 5, 6-(4-Chlorophenyl)-3-(4-(2-cyclopropyl-2-hydroxyethoxy)-3-methoxyphenyl)thieno[3,2-d][1,2,3]triazin-4(3H)-one] reads 10 nM.

Molecule `COc1cc(-n2nnc3cc(-c4ccc(Cl)cc4)sc3c2=O)ccc1OCC(C)O` (stereo not drawn) [Example 3, 6-(4-Chlorophenyl)-3-(4-(2-hydroxypropoxy)-3-methoxyphenyl)thieno[3,2-d][1,2,3]triazin-4(3H)-one] returned a Ki of 7 nM.

`COc1cc(-n2nnc3cc(-c4ccc(Cl)cc4)sc3c2=O)ccc1OCC(C)(C)O` [Example 1, 6-(4-Chlorophenyl)-3-(4-(2-hydroxy-2-methylpropoxy)-3-methoxyphenyl)-thieno[3,2-d][1,2,3]triazin-4(3H)-one] displayed a Ki of 3 nM.
